Starred links: 1 amine or outer side, 2 acyl side, 3 side chain; linkers in the order of their positions; H or OH if unused. Non-standard residues stand in square brackets, D forms with d. Residues, ends and D or L forms follow the SMILES beside them. X3 = O=C1C[C@](Cc2ccc(O)cc2)(N[*:1])[C@@H]2SC[C@@H](C(=O)[*:2])N12; Thz = O=C(O)[C@@H]1CSCN1
Tests used:
[1] = target: Angiotensin-converting enzyme (Homo sapiens, UniProt P12821); test: Inhibition of ACE (unknown origin)
[2] = target: T1, Type-1 angiotensin II receptor A (Rattus norvegicus, UniProt P25095); test: Displacement of [I125I]AngII form AT1 receptor in rat liver membrane incubated for 1.5 hrs by gamma counting method; type: cell membranes
T1 sequence (P25095 whole entry): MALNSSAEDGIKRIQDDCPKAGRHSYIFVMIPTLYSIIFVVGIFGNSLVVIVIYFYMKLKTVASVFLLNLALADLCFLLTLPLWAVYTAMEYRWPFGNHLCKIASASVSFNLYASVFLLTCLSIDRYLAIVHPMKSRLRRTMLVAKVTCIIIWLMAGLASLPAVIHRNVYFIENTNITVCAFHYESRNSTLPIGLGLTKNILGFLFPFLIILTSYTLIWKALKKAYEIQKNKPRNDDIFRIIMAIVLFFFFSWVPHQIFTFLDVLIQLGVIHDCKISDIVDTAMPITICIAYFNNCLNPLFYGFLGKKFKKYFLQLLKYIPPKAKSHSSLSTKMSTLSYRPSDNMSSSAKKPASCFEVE

[3] = target: T2, Type-2 angiotensin II receptor (Rattus norvegicus, UniProt P35351); test: Displacement of [I125I]AngII form AT2 receptor in rat liver membrane incubated for 1.5 hrs by gamma counting method; type: cell membranes
T2 sequence (P35351 whole entry): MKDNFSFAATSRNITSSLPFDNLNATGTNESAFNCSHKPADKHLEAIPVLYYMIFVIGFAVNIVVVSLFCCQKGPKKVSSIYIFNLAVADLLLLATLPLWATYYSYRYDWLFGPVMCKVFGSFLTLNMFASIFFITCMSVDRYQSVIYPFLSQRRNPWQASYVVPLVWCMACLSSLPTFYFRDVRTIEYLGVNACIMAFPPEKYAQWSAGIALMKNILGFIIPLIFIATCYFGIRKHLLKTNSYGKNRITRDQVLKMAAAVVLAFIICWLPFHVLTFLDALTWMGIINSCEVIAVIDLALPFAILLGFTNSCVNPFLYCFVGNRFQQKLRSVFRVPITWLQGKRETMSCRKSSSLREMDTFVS

[4] = test system: Periplaneta americana; test: Diuretic activity in Periplaneta americana assessed as hindgut contraction incubated for 5 mins by myotropic assay; type: functional
[5] = test system: Periplaneta americana; test: Diuretic activity in Periplaneta americana assessed as hindgut contraction by measuring maximal response incubated for 5 mins by myotropic assay relative to control; type: functional
[6] = test system: Periplaneta americana; test: Diuretic activity in Periplaneta americana assessed as hindgut contraction by measuring lasting time incubated for 5 mins by myotropic assay; type: functional
[7] = Octanol-water partition coefficient, logP of the compound; type: physicochemical
[8] = Half life in dog at 3 mg/kg, po or iv; type: ADME, organism-based, Canis lupus familiaris; details: in vivo
[9] = Clearance in rat at 10 mg/kg, iv; type: ADME, organism-based; details: in vivo
[10] = Volume of distribution at steady state in rat at 10 mg/kg, iv; type: ADME, organism-based; details: in vivo, read-out: Vdss
[11] = Half life in rat at 10 mg/kg, po or iv; type: ADME, organism-based; details: in vivo
[12] = Half life in monkey at 3 mg/kg, po or iv; type: ADME, organism-based, Macaca mulatta; details: rhesus monkey, in vivo
[13] = Oral bioavailability in monkey at 3 mg/kg; type: ADME, organism-based, Macaca mulatta; details: rhesus monkey, in vivo
[14] = Clearance in dog at 3 mg/kg, iv; type: ADME, organism-based, Canis lupus familiaris; details: in vivo
[15] = Oral bioavailability in rat at 10 mg/kg; type: ADME, organism-based; details: in vivo
[16] = Metabolic stability in pooled human liver microsomes assessed as parent compound remaining measured after 1 hr; type: ADME, Microsome; details: read-out: Stability
[17] = Clearance in monkey at 3 mg/kg, iv; type: ADME, organism-based, Macaca mulatta; details: rhesus monkey, in vivo
[18] = Oral bioavailability in dog at 3 mg/kg; type: ADME, organism-based, Canis lupus familiaris; details: in vivo
[19] = Volume of distribution at steady state in monkey at 3 mg/kg, iv; type: ADME, organism-based, Macaca mulatta; details: rhesus monkey, in vivo, read-out: Vdss
[20] = Volume of distribution at steady state in dog at 3 mg/kg, iv; type: ADME, organism-based, Canis lupus familiaris; details: in vivo, read-out: Vdss
[21] = Tmax in rat at 10 mg/kg, ID; type: ADME, organism-based; details: in vivo
[22] = Bioavailability in rat under fed condition at 10 mg/kg, ID; type: ADME, organism-based; details: in vivo
[23] = Bioavailability in rat under fasted condition at 10 mg/kg, ID; type: ADME, organism-based; details: in vivo
[24] = Half life in rat at 10 mg/kg, iv; type: ADME, organism-based; details: in vivo
[25] = target: D(2) dopamine receptor (Homo sapiens) (UniProt P14416); details: dose 1.0 10^-7M
Chain of D(2) dopamine receptor (Homo sapiens) (P14416 whole entry): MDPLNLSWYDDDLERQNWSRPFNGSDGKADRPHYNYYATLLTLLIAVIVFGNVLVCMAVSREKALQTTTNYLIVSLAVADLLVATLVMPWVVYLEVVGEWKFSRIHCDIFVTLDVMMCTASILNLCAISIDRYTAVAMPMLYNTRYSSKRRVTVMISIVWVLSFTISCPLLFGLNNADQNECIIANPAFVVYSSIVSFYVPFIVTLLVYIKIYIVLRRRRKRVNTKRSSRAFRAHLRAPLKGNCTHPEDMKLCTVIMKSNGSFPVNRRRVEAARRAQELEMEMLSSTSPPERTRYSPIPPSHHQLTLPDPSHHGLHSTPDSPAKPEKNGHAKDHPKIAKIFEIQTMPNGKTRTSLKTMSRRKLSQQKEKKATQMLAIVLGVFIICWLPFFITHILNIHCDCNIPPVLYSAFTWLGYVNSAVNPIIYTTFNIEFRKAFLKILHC

[26] = target: Human immunodeficiency virus type 1 protease (Human immunodeficiency virus 1, UniProt Q72874); test: Inhibition of HIV1 protease
[27] = target: Neurotensin receptor type 2 (Homo sapiens, UniProt O95665); test: Inhibition of human NTR2
Chain of Neurotensin receptor type 2 (O95665 whole entry): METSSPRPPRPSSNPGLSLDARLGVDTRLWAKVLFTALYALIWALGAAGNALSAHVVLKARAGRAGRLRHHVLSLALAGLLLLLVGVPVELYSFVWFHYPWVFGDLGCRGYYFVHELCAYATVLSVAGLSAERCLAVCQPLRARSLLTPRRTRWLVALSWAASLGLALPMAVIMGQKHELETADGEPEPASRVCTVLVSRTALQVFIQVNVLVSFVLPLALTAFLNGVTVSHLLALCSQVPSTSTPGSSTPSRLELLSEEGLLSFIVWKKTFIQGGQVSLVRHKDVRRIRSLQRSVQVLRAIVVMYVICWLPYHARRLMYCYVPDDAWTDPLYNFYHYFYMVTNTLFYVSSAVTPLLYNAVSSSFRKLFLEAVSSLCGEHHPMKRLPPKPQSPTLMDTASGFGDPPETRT

[28] = target: D(2) dopamine receptor (Homo sapiens) (UniProt P14416); details: dose 1.0 10^-8M

Chain of Angiotensin-converting enzyme (P12821 whole entry): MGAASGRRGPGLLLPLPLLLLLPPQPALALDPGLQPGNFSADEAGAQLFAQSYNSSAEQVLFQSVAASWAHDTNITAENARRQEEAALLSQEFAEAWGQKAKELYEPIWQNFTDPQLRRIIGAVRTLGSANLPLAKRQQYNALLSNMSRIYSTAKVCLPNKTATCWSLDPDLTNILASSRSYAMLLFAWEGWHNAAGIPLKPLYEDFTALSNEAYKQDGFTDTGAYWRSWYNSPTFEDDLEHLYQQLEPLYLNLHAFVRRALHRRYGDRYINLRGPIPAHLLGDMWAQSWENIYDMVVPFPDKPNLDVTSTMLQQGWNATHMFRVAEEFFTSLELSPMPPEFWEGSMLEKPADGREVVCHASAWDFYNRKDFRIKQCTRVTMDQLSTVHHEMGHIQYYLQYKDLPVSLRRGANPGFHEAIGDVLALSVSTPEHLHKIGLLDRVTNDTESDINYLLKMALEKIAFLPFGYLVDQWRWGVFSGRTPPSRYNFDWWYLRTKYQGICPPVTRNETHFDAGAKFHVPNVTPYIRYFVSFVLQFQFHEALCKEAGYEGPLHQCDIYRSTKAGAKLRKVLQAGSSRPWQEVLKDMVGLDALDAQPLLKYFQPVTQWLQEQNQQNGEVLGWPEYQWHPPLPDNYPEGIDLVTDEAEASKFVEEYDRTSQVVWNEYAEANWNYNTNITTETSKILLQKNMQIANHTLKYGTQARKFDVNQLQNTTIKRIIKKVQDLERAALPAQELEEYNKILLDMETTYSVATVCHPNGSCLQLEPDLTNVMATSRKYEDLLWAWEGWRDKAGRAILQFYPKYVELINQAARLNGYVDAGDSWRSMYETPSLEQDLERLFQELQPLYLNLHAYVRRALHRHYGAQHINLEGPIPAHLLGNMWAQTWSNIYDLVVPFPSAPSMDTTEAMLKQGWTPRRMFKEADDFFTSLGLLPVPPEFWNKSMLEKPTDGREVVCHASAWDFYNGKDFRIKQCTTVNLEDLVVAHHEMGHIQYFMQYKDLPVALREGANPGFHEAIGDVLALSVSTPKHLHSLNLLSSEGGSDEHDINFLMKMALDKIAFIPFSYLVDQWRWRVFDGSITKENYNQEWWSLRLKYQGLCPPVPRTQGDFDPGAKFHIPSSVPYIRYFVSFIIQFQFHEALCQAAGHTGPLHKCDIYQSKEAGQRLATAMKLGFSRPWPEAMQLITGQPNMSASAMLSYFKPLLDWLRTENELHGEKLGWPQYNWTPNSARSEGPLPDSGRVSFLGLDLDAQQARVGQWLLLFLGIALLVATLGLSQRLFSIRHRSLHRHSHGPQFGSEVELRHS

Work on `C[C@H](CS)C(=O)N1CCS[C@H]1C(=O)O` yielded an IC50 [1] of 832 nM.
For `CC(C)C[C@H](NC(=O)[C@H](CCCNC(=N)N)NC(=O)[C@@H](N)CC(=O)O)C(=O)N[C@@]1(Cc2ccc(O)cc2)CC(=O)N2[C@H]1SC[C@H]2C(=O)N[C@@H](Cc1c[nH]cn1)C(=O)N1CCC[C@H]1C(=O)N[C@@H](Cc1ccccc1)C(=O)O` (H-DRL[X3]HPF-OH), the Ki [2] was > 10000 nM and the Ki [3] was 1 nM.
With `NC(=O)CNC(=O)[C@H](Cc1c[nH]c2ccccc12)NC(=O)[C@@H]1CSCN1C(=O)[C@H](Cc1ccccc1)NC(=O)[C@@H](N)Cc1ccccc1` (H-FF[Thz]WG-NH2) the EC50 [4] was 0.736 nM, the Activity [5] was 71.5% and the Time [6] was 78 s.
Compound `C[Si]1(C)C[C@@H](C(=O)O)N(C(=O)OCC2c3ccccc3-c3ccccc32)C1` has a logP [7] of 1.3.
In the case of `CC(C)[C@@H](Nc1ccc(CNC(=O)[C@@H]2SCCN2C(=O)C[C@H](N)Cc2cc(F)c(F)cc2F)cc1)C(=O)O`, the half-life [8] is reported as > 3 h, the clearance [9] is reported as 16.7 mL/min/kg and the Vd [10] is reported as 0.3 L/kg. For the same compound, the half-life [11] was > 3 h, the half-life [12] was > 3 h and the bioavailability [13] was < 2.5%. The clearance [14] was 16.7 mL/min/kg, the bioavailability [15] was < 2.5% and the remaining at 1 h [16] was 98.9%. For the same compound, the clearance [17] was 16.7 mL/min/kg, the bioavailability [18] was < 2.5% and the Vd [19] was 0.3 L/kg. For the same compound, the Vd [20] was 0.3 L/kg.
Work on `Cc1ccccc1CNC(=O)[C@H]1N(C(=O)[C@@H](O)[C@H](Cc2ccccc2)NC(=O)c2cccc(O)c2C)CSC1(C)C` yielded a Tmax [21] of 1 h, a bioavailability [22] of 33% and a bioavailability [23] of 33%. It also gave a half-life [24] of 1.55 h.
Compound `NC(=O)[C@@H]1CS[C@@H]2CC[C@]3(CCCN3C(=O)[C@@H]3CCCN3)C(=O)N21` has an inhibition [25] of 21.4%.
With `NC(=O)CNC(=O)[C@H](Cc1c[nH]c2ccccc12)NC(=O)[C@@H]1CCCN1C(=O)[C@H](Cc1ccccc1)NC(=O)[C@@H](N)Cc1ccccc1` (H-FFPWG-NH2) the EC50 [4] was 0.794 nM, the Activity [5] was 66.8% and the Time [6] was 72 s.
`CC(C)(C)NC(=O)[C@@H]1CSCN1C(=O)[C@@H](O)[C@H](Cc1ccccc1)NC(=O)[C@H](CC(N)=O)NC(=O)OCc1ccccc1` gave an IC50 [26] of 31 nM.
`CC[C@H](C)[C@H](NC(=O)[C@H](Cc1ccc(O)cc1)NC(=O)[C@@H]1CCCN1C(=O)[C@H](CCCCN)NC(=O)[C@@H](N)CCCCN)C(=O)N[C@@H](CC(C)C)C(=O)O` showed an IC50 [27] of 0.47 nM.
`NC(=O)[C@H]1CS[C@@H]2CC[C@]3(CCCN3C(=O)[C@@H]3CCCN3)C(=O)N12` showed an inhibition [28] of 14.6%.
For `CC(C)(C)NC(=O)[C@H]1N(C(=O)[C@@H](O)[C@H](Cc2ccccc2)NC(=O)[C@H](CC(N)=O)NC(=O)COc2cccc3ccccc23)CSC1(C)C`, the IC50 [26] was 2.8 nM.

— ChEMBL document CHEMBL5226360, “Pseudoprolines as stereoelectronically tunable proline isosteres” (Bioorg Med Chem Lett, 2022)
